The results in this text go back to patent US5866573A, “Pyrazinone thrombin inhibitors” (Merck & Co., Inc., priority 1997, dated 1999).

SMILES strings stand for the structures.

One assay deals with thrombotic occlusion. The assay is described as follows: In vivo rat ferric chloride assay to measure thrombotic occlusions. The conditions noted are these: 10 μg/kg/min i.v. infusion from 60 min before 35% FeCl3 and 90 min after, 6 rats. Set-up: species or system Male Sprague-Dawley rats. On the procedure:
Studies of 3 (2-Phenylethylarnino)-6-methyl-1-(2-amino-6-following rat ferric chloride assay substantially as described in Thrombosis Research, No. 60, page 269(1990) by Kurtz et al were used to determine in vivo activity of the thrombin inhibitors of the invention. Male Sprague-Dawley rats (b)ody weights 200-350 grams) were anesthetized with dial-urethane solution (0.1 ml/100 gm body weight i.p.), and a lateral tail vein was cannulated with a 23 gauge needle connected to a 12 inch length of PE50 tubing. The tubing was attached to a 3-way valve by a tubing adapter. Saline (control) or test compound, as appropriate, was administered via the tail vein catheter. A tracheostomy was performed with a 0.75 inch length of PE205 tubing. The right carotid artery is exposed and a 1.3 mm diameter Doppler flow probe was placed on the vessel. Body temperature was maintained at 37° C. using a heat lamp.
6 rats were randomized to continuous intravenous infusions of saline or test compound administered via the tail vein. Test compound was administered at a rate of 10 μg/kg/min. Treatment infusions were initiated 60 min before the placement of a 3 mm square piece of Whatman No. 1 filter paper saturated with 35% FeCl3 onto the exposed carotid artery distal to the flow probe. […] Time to occlusion was defined as the time from application of FeCl3 to thrombotic occlusion of the vessel.

A further assay addresses human α-thrombin (Homo sapiens, UniProt P00734). The assay is described as follows: In vitro assay for determining proteinase inhibition: human α-thrombin. It counts as biochemical. The conditions noted are these: inhibitory activity against human thrombin, class symbols of Tables 1-3; 25° C., pH 7.4. The protocol:
Assays of human α-thrombin and human trypsin were performed by the methods substantially as described in Thrombosis Research, Issue No. 70, page 173 (1993) by S. D. Lewis et al.
The assays were carried out at 25° C. in 0.05M TRIS buffer pH 7.4, 0.15M NaCl, 0.1% PEG. Trypsin assays also contained 1 mM CaCl2. In assays wherein rates of hydrolysis of a p-nitroanilide (pna) substrate were determined, a Thermomax 96-well plate reader was used was used to measure (at 405 nm) the time dependent appearance of p-nitroaniline. sar-PR-pna was used to assay human α-thrombin (Km =125 μM) and bovine trypsin (Km =125 μM). p-Nitroanilide substrate concentration was determined from measurements of absorbance at 342 nm using an extinction coefficient of 8270 cm^-1 M^-1.
In certain studies with potent inhibitors (Ki <10 nM) where the degree of inhibition of thrombin was high, a more sensitive activity assay was employed. In this assay the rate of thrombin catalyzed hydrolysis of the fluorogenic substrate Z-GPR-afc (Km =27 μM) was determined from the increase in fluorescence at 500 nm (excitation at 400 nm) associated with production of 7-amino-4-trifluoromethyl coumarin. Concentrations of stock solutions of Z-GPR-afc were determined from measurements of absorbance at 380 nm of the 7-amino-4-trifluoromethyl coumarin produced upon complete hydrolysis of an aliquot of the stock solution by thrombin.
Activity assays were performed by diluting a stock solution of substrate at least tenfold to a final concentration ≤0.1 Km into a solution containing enzyme or enzyme equilibrated with inhibitor. Times required to achieve equilibration between enzyme and inhibitor were determined in control experiments. Initial velocities of product formation in the absence (Vo) or presence of inhibitor (Vi) were measured. […]

In the case of `Cc1nc(N)ccc1CNC(=O)Cn1c(C)cnc(NCCc2ccccc2)c1=O` [test compound], in the assay with thrombotic occlusion, the “efficacy in rat ferric chloride assay” value is “fully efficacious” and the “rats showing evidence of thrombotic occlusion” value is listed as “None of the rats treated with the test compound showed evidence of thrombotic occlusion”. As a reminder, the Ki is a measure of affinity in units of concentration, obtained from inhibition or displacement. `CCNC(=O)COc1ccccc1CNC(=O)Cn1c(C)cnc(NCCc2ccccc2)c1=O` [H, NHC2 H5] showed a Ki on human α-thrombin of less than 1 nM. The same measure, in the same setting: in the case of `Cc1nc(N)ccc1CNC(=O)Cn1c(C)cnc(NC(C)(C)Cc2ccccc2)c1=O` [PhCH2 C(CH3)2] it was not below 1 nM; in that of `CCNC(=O)COc1ccc(Cl)cc1CNC(=O)Cn1c(C)cnc(NC(C)(C)C)c1=O` [t-C4 H9], not below 1 nM.
